Read-outs that look alike come from different tables or passages of the source.
Assays:
[1] = test system: human tumor xenografts; settings: cited from earlier work
[2] = test system: human colon cancer xenografts; settings: in vivo; cited from earlier work
[3] = target: T1, DNA topoisomerase I (Homo sapiens, UniProt P11387); settings: by stabilizing the cleavable complex; cited from earlier work
T1 sequence (P11387 1-765): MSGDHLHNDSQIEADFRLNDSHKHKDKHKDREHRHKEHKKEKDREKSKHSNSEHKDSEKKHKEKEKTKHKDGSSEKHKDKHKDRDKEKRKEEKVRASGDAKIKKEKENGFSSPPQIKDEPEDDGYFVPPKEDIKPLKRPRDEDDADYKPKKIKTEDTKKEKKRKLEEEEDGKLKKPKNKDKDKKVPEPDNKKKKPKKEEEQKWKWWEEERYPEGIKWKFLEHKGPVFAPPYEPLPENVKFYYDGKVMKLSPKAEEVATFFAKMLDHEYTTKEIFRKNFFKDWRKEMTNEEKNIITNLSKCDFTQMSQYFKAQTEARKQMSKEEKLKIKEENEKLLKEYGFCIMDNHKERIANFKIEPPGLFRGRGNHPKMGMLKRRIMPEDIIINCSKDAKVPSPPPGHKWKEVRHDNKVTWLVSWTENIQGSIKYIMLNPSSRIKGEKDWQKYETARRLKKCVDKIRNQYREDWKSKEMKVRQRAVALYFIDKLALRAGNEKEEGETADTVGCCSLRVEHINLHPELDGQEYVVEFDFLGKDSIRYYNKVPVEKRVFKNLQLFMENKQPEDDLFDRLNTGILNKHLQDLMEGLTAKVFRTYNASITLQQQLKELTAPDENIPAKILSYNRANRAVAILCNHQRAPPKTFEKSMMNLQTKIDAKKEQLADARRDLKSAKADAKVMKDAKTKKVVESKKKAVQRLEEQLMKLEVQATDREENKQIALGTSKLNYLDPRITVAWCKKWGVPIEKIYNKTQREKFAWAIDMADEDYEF

[4] = cited from earlier work
[5] = for Hygroscopicity: from moisture sorption 5 to 95% RH; for Weight % chg: 25 deg C
Description: Moisture sorption/desorption data were collected on a VTI SGA-100 moisture balance system. […] The samples were not dried prior to analysis. Equilibrium criteria used for analysis were less than 0.0100 weight % change in 5 minutes with a maximum equilibration time of 3 hours if the weight criterion was not met. Data were not corrected for the initial moisture content of the samples.

[6] = ground in an amalgamator for 10 minutes
[7] = closed vial, 31 days, ambient conditions
[8] = Description: Dehydration/desolvation studies were conducted by placing a sample under continuous vacuum at room temperature for 14 days. An XRPD pattern was obtained on the remaining solid and compared to the starting material.
[9] = cited from earlier work; remark: listed apart in the source

In the case of `CC[C@@]1(O)C(=O)OCc2c1cc1n(c2=O)Cc2cc3c([N+](=O)[O-])cccc3nc2-1` [9-nitrocamptothecin, 9-nitro-20(S)-camptothecin], the “Growth of human tumor xenografts” value ([1]; immunodeficient nude mice) is given as “inhibited the growth”, the “Activity against human tumor xenograft models” value ([1]; mouse, in vivo) is given as “high activity” and the “Regression of established human tumors” value ([1]; xenografts in nude mice) is given as “induced regression”.

For `CC[C@@]1(O)C(=O)OCc2c1cc1n(c2=O)Cc2cc3cc4c(cc3nc2-1)OCO4` [10,11,MD, 10,11-methylendioxy-20(S)-camptothecin], the “Anticancer activity against human colon cancer xenografts” value [2] is given as “high anticancer activity”.

In the case of `CC[C@@]1(O)C(=O)OCc2c1cc1n(c2=O)Cc2cc3ccccc3nc2-1` [Camptothecin], the “Inhibition of DNA topoisomerase I” value [3] is listed as “inhibit DNA topoisomerase I” and the Water solubility [4] is listed as “poorly water soluble”.

For `CC[C@@]1(O)C(=O)OCc2c1cc1n(c2=O)Cc2cc3c(N)cccc3nc2-1` [Form 9AC, 9-Amino-20(S)-Camptothecin], the “Anticancer activity against human colon cancer xenografts” value [2] is listed as “high anticancer activity”.

For `CC[C@@]1(O)C(=O)OCc2c1cc1n(c2=O)Cc2cc3c([N+](=O)[O-])cccc3nc2-1` [Form A, 9-nitro-20(S)-camptothecin], the Hygroscopicity [5] was “not hygroscopic” and the “Change of crystallinity on grinding (XRPD)” value [6] was “losing crystallinity after grinding”.

For `CC[C@@]1(O)C(=O)OCc2c1cc1n(c2=O)Cc2cc3c([N+](=O)[O-])cccc3nc2-1` [Form B, 9-nitro-20(S)-camptothecin], the “Total weight gained in the region from 5 to 95% RH” value ([5]; 5 to 95% RH) was 2.21%, the Weight % chg ([5]; desorption, about 5% RH) was −1.0408% and the Weight % chg ([5]; desorption, about 15% RH) was −0.5118%. For the same compound, the Weight % chg ([5]; desorption, about 25% RH) was −0.1151%, the Weight % chg ([5]; desorption, about 35% RH) was 0.1861% and the Weight % chg ([5]; desorption, about 45% RH) was 0.4359%. For the same compound, the Weight % chg ([5]; desorption, about 55% RH) was 0.6637%, the Weight % chg ([5]; desorption, about 65% RH) was 0.8473% and the Weight % chg ([5]; desorption, about 75% RH) was 1.0310%. The Weight % chg ([5]; desorption, about 85% RH) was 1.1706%, the “Water lost upon equilibration at 5% RH” value ([5]; equilibration at 5% RH) was 0.98% and the Hygroscopicity [5] was “relatively hygroscopic”. The Weight % chg ([5]; sorption, about 5% RH) was −0.9820%, the Weight % chg ([5]; sorption, about 15% RH) was −0.4898% and the Weight % chg ([5]; sorption, about 25% RH) was −0.1151%. The Weight % chg ([5]; sorption, about 35% RH) was 0.1788%, the Weight % chg ([5]; sorption, about 45% RH) was 0.4286% and the Weight % chg ([5]; sorption, about 55% RH) was 0.6416%. For the same compound, the Weight % chg ([5]; sorption, about 65% RH) was 0.8314%, the Weight % chg ([5]; sorption, about 75% RH) was 0.9869% and the Weight % chg ([5]; sorption, about 85% RH) was 1.1118%. The Weight % chg ([5]; sorption, about 95% RH) was 1.2293%, the Weight % chg ([5]; start, elapsed time 0.0 min) was 0.0000% and the “Stability of the crystalline polymorph on storage (XRPD pattern)” value [7] was “relatively stable”.

In the case of `CC[C@@]1(O)C(=O)OCc2c1cc1n(c2=O)Cc2cc3c([N+](=O)[O-])cccc3nc2-1` [Form C, 9-nitro-20(S)-camptothecin], the “Change of form on desolvation under vacuum” value [8] is reported as “becomes amorphous”.

In the case of `CC[C@@](O)(C(=O)[O-])c1cc2n(c(=O)c1CO)Cc1cc3ccccc3nc1-2.[Na+]` [Sodium camptothecin], the “Side effects in clinical trials” value ([9]; administered intravenously) is given as “myelosuppression and hemorrhagic cystitis” and the “Antineoplastic activity in clinical trials” value ([9]; solubilized by sodium hydroxide in water, early 1970's trials) is given as “found to have antineoplastic activity”.

— patent publication US6482830B1 (SuperGen, Inc., priority 2002, dated 2002)
